Where a name gives a salt, the structure may show the parent alone. Read-outs that look alike come from different tables or passages of the source. Values belong to the compound of their own block, whether it stands above or below them.
Test system: cultured human mast cells (CHMC)
Assay: CHMC low cell density IgE activation: tryptase assay
Format: cell-based
In short: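 CHMC were seeded at 1000–1500 cells/well in MT buffer and incubated 1 hr at 37 °C. They were then stimulated with anti-IgE for 30 min at 37 °C, with unstimulated wells as controls. Released tryptase in the supernatant was measured with a fluorogenic substrate after 30 min at room temperature.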

[1] = low cell density, IgE activation, 3 pt, read-out: LD Tryptase, CHMC, IgE, 3 pt
[2] = low cell density, IgE activation, 8 pt, read-out: LD Tryptase, CHMC, IgE, 8 pt
[3] = Homo sapiens, Mast cell, low cell density, IgE activation, 3 pt, read-out: LD Tryptase, CHMC, IgE, 3 pt
[4] = Homo sapiens, Mast cell, low cell density, IgE activation, 8 pt, read-out: LD Tryptase, CHMC, IgE, 8 pt
[5] = low cell density CHMC, IgE activation, tryptase readout, 8 pt, read-out: LD Tryptase, CHMC, IgE, 8 pt

IC50 [1]: < 10 µM
IC50 [2]: < 10 µM
SMILES: Cc1nc2cc(Nc3ncc(F)c(Nc4ccc5c(n4)NC(=O)C(C)(C)O5)n3)ccc2n1CCCO [Compound 951, N4-(2,2-Dimethyl-3-oxo-4H-5-pyrido[1,4]oxazin-6-yl)-5-fluoro-N2-[1-(3-hydroxypropyl)-2-methylbenzimidazol-5-yl]-2,4-pyrimidinediamine]

IC50 [3]: < 10 µM
IC50 [4]: < 10 µM
SMILES: CC(=O)NCCCn1c(C)nc2cc(Nc3ncc(F)c(Nc4ccc5c(c4)NC(=O)C(C)(C)O5)n3)ccc21 [Compound 952]

IC50 [1]: < 10 µM
IC50 [2]: < 10 µM
SMILES: CC(=O)NCCCn1c(C)nc2cc(Nc3ncc(F)c(Nc4ccc5c(n4)NC(=O)C(C)(C)O5)n3)ccc21 [Compound 953, N2-[1-[3-(N-Acetylamino)propyl]-2-methylbenzimidazol-5-yl]-N4-(2,2-Dimethyl-3-oxo-4H-5-pyrido[1,4]oxazin-6-yl)-5-fluoro-2,4-pyrimidinediamine]

IC50 [1]: < 10 µM
IC50 [2]: < 10 µM
SMILES: Cn1c(CN2CCOCC2)nc2cc(Nc3ncc(F)c(Nc4ccc(Cl)c(Cl)c4)n3)ccc21 [Compound 954, N4-(3,4-Dichlorophenyl)-5-fluoro-N2-[1-methyl-2-(4-morpholinomethyl)benzimidazol-5-yl]-2,4-pyrimidinediamine]

IC50 [2]: < 10 µM
SMILES: COc1ccc(Nc2nc(Nc3ccc4c(c3)nc(CN3CCOCC3)n4C)ncc2F)cc1Cl [Compound 955, N4-(3-Chloro-4-methoxyphenyl)-5-fluoro-N2-[1-methyl-2-(4-morpholinomethyl)benzimidazol-5-yl]-2,4-pyrimidinediamine]

IC50 [2]: < 10 µM
SMILES: Cn1c(CN2CCOCC2)nc2cc(Nc3ncc(F)c(Nc4ccc5c(c4)NC(=O)C(C)(C)O5)n3)ccc21 [Compound 956, N4-(2,2-Dimethyl-3-oxo-4H-benz[1,4]oxazin-6-yl)-5-fluoro-N2-[1-methyl-2-(4-morpholinomethyl)benzimidazol-5-yl]-2,4-pyrimidinediamine]

IC50 [1]: < 10 µM
IC50 [2]: < 10 µM
SMILES: C[C@@H]1Oc2ccc(Nc3nc(Nc4ccc5c(c4)nc(CN4CCOCC4)n5C)ncc3F)cc2NC1=O [Compound 957, (S)-5-Fluoro-N2-[1-methyl-2-(4-morpholinomethyl)benzimidazol-5-yl]-N4-(2-methyl-3-oxo-2H,4H-benz[1,4]oxazin-6-yl)- -2,4-pyrimidinediamine]

IC50 [2]: < 10 µM
SMILES: Cn1c(CN2CCOCC2)nc2cc(Nc3ncc(F)c(Nc4ccc5c(n4)NC(=O)C(C)(C)O5)n3)ccc21 [Compound 958, N4-(2,2-Dimethyl-3-oxo-4H-5-pyrido[1,4]oxazin-6-yl)-5-fluoro-N2-[1-methyl-2-(4-morpholinomethyl)benzimidazol-5-yl]-2,4-pyrimidinediamine]

IC50 [2]: < 10 µM
SMILES: COc1ccc(Nc2nc(Nc3ccc4[nH]c(CN5CCOCC5)nc4c3)ncc2F)cc1Cl [Compound 960, N4-(3-Chloro-4-methoxyphenyl)-5-fluoro-N2-[2-(4-morpholinomethyl)-1H-benzimidazol-5-yl]-2,4-pyrimidinediamine]

IC50 [4]: < 10 µM
SMILES: CC1(C)Oc2ccc(Nc3nc(Nc4ccc5[nH]c(CN6CCOCC6)nc5c4)ncc3F)cc2NC1=O [Compound 961, N4-(2,2-Dimethyl-3-oxo-4H-benz[1,4]oxazin-6-yl)-5-fluoro-N2-[2-(4-morpholinomethyl)-1H-benzimidazol-5-yl]-2,4-pyrimidinediamine]

IC50 [4]: < 10 µM
SMILES: CC1(C)Oc2ccc(Nc3nc(Nc4ccc5[nH]c(CN6CCOCC6)nc5c4)ncc3F)nc2NC1=O [Compound 962, N4-(2,2-Dimethyl-3-oxo-4H-5-pyrido[1,4]oxazin-6-yl)-5-fluoro-N2-[2-(4-morpholinomethyl)-1H-benzimidazol-5-yl]-2,4-pyrimidinediamine]

IC50 [4]: < 10 µM
SMILES: Cc1nc2cc(Nc3ncc(F)c(Nc4ccc5c(c4)NC(=O)C(C)(C)O5)n3)ccc2n1CCCNS(C)(=O)=O [Compound 963]

IC50 [1]: < 10 µM
IC50 [2]: < 10 µM
SMILES: Cc1nc2cc(Nc3ncc(F)c(Nc4ccc5c(n4)NC(=O)C(C)(C)O5)n3)ccc2n1CCCNS(C)(=O)=O [Compound 964, N4-(2,2-Dimethyl-3-oxo-4H-5-pyrido[1,4]oxazin-6-yl)-5-fluoro-N2-[2-methyl-1-[3-(N-methylsulfonylamino)propyl]benzimidazol-5-yl]-2,4-pyrimidinediamine]

IC50 [3]: < 10 µM
SMILES: Cn1c(CS(C)(=O)=O)nc2cc(Nc3ncc(F)c(Nc4ccc(Cl)c(Cl)c4)n3)ccc21 [Compound 965]

IC50 [3]: < 10 µM
SMILES: COc1ccc(Nc2nc(Nc3ccc4c(c3)nc(CS(C)(=O)=O)n4C)ncc2F)cc1Cl [Compound 966]

IC50 [3]: < 10 µM
IC50 [4]: < 10 µM
SMILES: C[C@@H]1Oc2ccc(Nc3nc(Nc4ccc5c(c4)nc(CS(C)(=O)=O)n5C)ncc3F)cc2NC1=O [Compound 968]

IC50 [1]: < 10 µM
IC50 [2]: < 10 µM
SMILES: Cn1c(CS(C)(=O)=O)nc2cc(Nc3ncc(F)c(Nc4ccc5c(n4)NC(=O)C(C)(C)O5)n3)ccc21 [Compound 969, N4-(2,2-Dimethyl-3-oxo-4H-5-pyrido[1,4]oxazin-6-yl)-5-fluoro-N2-{1-methyl-2-[ (methylsulfonyl)methyl]benzimidazol-5-yl}-2,4-pyrimidinediamine]

IC50 [3]: < 10 µM
SMILES: CCN(CC)Cc1nc2cc(Nc3ncc(F)c(Nc4ccc(Cl)c(Cl)c4)n3)ccc2n1C [Compound 970]

IC50 [3]: < 10 µM
SMILES: CCN(CC)Cc1nc2cc(Nc3ncc(F)c(Nc4ccc(OC)c(Cl)c4)n3)ccc2n1C [Compound 971]

IC50 [3]: < 10 µM
IC50 [4]: < 10 µM
SMILES: CCN(CC)Cc1nc2cc(Nc3ncc(F)c(Nc4ccc5c(c4)NC(=O)C(C)(C)O5)n3)ccc2n1C [Compound 972]

IC50 [3]: < 10 µM
IC50 [4]: < 10 µM
SMILES: CCN(CC)Cc1nc2cc(Nc3ncc(F)c(Nc4ccc5c(c4)NC(=O)[C@H](C)O5)n3)ccc2n1C [Compound 973]

IC50 [1]: < 10 µM
IC50 [2]: < 10 µM
SMILES: CCN(CC)Cc1nc2cc(Nc3ncc(F)c(Nc4ccc5c(n4)NC(=O)C(C)(C)O5)n3)ccc2n1C [Compound 974, N2-[2-(N,N-Diethylaminomethyl)-1-methylbenzimidazol-5-yl]-N4-(2,2-dimethyl-3-oxo-4H-5-pyrido[1,4]oxazin-6-yl)-5-fluoro-2,4-pyrimidinediamine]

IC50 [4]: < 10 µM
SMILES: CC1(C)Oc2ccc(Nc3nc(Nc4ccc5[nH]c(N6CCOCC6)nc5c4)ncc3F)cc2NC1=O [Compound 976, N4-(2,2-Dimethyl-3-oxo-4H-benz[1,4]oxazin-6-yl)-5-fluoro-N2-[2-(4-morpholino)-1H-benzimidazol-5-yl]-2,4-pyrimidinediamine]

IC50 [4]: < 10 µM
SMILES: CC1(C)Oc2ccc(Nc3nc(Nc4ccc5[nH]c(N6CCOCC6)nc5c4)ncc3F)nc2NC1=O [Compound 977, N4-(2,2-Dimethyl-3-oxo-4H-5-pyrido[1,4]oxazin-6-yl)-5-fluoro-N2-[2-(4-morpholino)-1H-benzimidazol-5-yl]-2,4-pyrimidinediamine]

IC50 [2]: < 10 µM
SMILES: COc1ccc(Nc2nc(Nc3ccc4[nH]c(N5CCOCC5)nc4c3)ncc2F)cc1Cl [Compound 978, N4-(3-Chloro-4-methoxyphenyl)-5-fluoro-N2-[2-(4-morpholino)-1H-benzimidazol-5-yl]-2,4-pyrimidinediamine]

SMILES: CNC(=O)COc1cccc(Nc2ncc(F)c(Nc3ccc4c(n3)NC(=O)C(C)(C)O4)n2)c1 [Compound 984, N4-(2,2-Dimethyl-3-oxo-4H-5-pyrid[1,4]oxazin-6-yl)-5-fluoro-N2-[3-(N-methylamino)carbonylmethyleneoxyphenyl]-2,4-pyrimidinediamine Benzensulfonic Acid Salt]
IC50 (Homo sapiens, Mast cell, read-out: LD Tryptase, CHMC, IgE, 3 pt): < 10 µM
IC50 (Homo sapiens, Mast cell, read-out: LD Tryptase, CHMC, IgE, 8 pt): < 10 µM

SMILES: CNC(=O)COc1cccc(Nc2ncc(F)c(Nc3ccc4c(n3)NC(=O)C(C)(C)O4)n2)c1 [Compound 986, N4-(2,2-Dimethyl-3-oxo-4H-5-pyrid[1,4]oxazin-6-yl)-5-fluoro-N2-[3-(N-methylamino)carbonylmethyleneoxyphenyl]-2,4-pyrimidinediamine Hydrogen Chloride Salt]
IC50 [1]: < 10 µM
IC50 [2]: < 10 µM

IC50 [2]: < 10 µM
SMILES: CNC(=O)COc1cccc(Nc2ncc(F)c(Nc3ccc4c(c3)NCC(C)(C)O4)n2)c1 [Compound 1000, N4-(3,4-Dihydro-2,2-dimethyl-4H-benz[1,4]oxazin-6-yl)-5-fluoro-N2-[3-(N-methylamino)carbonylmethyleneoxyphenyl]-2,4-pyrimidinediamine]

IC50 [2]: < 10 µM
SMILES: COc1c(C)cc(Nc2ncc(F)c(Nc3ccc4c(c3)NCC(C)(C)O4)n2)cc1Cl [Compound 1001, N2-(3-Chloro-4-methoxy-5-methylphenyl)-N4-(3,4-dihydro-2,2-dimethyl-4H-benz[1,4]oxazin-6-yl)-5-fluoro-2,4-pyrimidinediamine]

IC50 [2]: < 10 µM
SMILES: COc1cc(Nc2ncc(F)c(Nc3ccc4c(c3)NCC(C)(C)O4)n2)cc(OC)c1 [Compound 1002, N4-(3,4-Dihydro-2,2-dimethyl-4H-benz[1,4]oxazin-6-yl)-N2-(3,5-dimethoxyphenyl)-5-fluoro-2,4-pyrimidinediamine]

IC50 [1]: < 10 µM
IC50 [2]: < 10 µM
SMILES: CC(C)c1cccc(Nc2ncc(F)c(Nc3ccc4c(n3)NC(=O)C(C)(C)O4)n2)c1 [Compound 1003, N4-(2,2-Dimethyl-3-oxo-4H-5-pyrid[1,4]oxazin-6-yl)-5-fluoro-N2-(3-isopropylphenyl)-2,4-pyrimidinediamine]

IC50 [5]: > 10 µM
SMILES: CC1(C)Oc2ccc(Nc3nc(Nc4ccc(-c5ncco5)cc4)ncc3F)nc2NC1=O [Compound 1035, N4-(2,2-Dimethyl-3-oxo-4H-5-pyrid[1,4]oxazin-6-yl)-5-fluoro-N2-[4-(oxazol-2-yl)phenyl]-2,4-pyrimidinediamine]

IC50 [5]: < 10 µM
SMILES: COc1c(C)cc(Nc2ncc(F)c(Nc3ccc4c(n3)NC(=O)CO4)n2)cc1C [Compound 1059, N2-(3,5-Dimethyl-4-methoxyphenyl)-5-fluoro-N4-(3-oxo-2H,4H-5-pyrid[1,4]oxazin-6-yl)-2,4-pyrimidinediamine]

Reference: patent publication US20220073536A1 (Rigel Pharmaceuticals, Inc., priority 2003, published 2022)
